Patent publication US20250128062A1 (priority 2023, published 2025)
Entries after “also recorded” stand apart in the source; their conditions may differ.

Assays:
[1] = in vivo; cited from earlier work
[2] = patients; cited from earlier work
[3] = tested on: afferent transmission in C-fiber and Aδ-fiber afferents (DRG); assay: ex vivo single-fiber recordings of afferent transmission block by DRG stimulation with local Na,K-ATPase inhibition (3-compartment tissue chamber)
Text: FIG. 9A is a plot of ex vivo single-fiber recordings from afferent axons in a 3-compartment tissue chamber that isolates the DRG from the spinal nerve and dorsal root allowing focused pharmacological application.
Action potentials were evoked by stimulating the peripheral end of the spinal nerve, which is transmitted down the peripheral and central axons to be recorded by extracellular single-fiber recordings from split dorsal root filaments.

[4] = target: α1 unit of Na,K-ATPase; conditions: read-out: Kd to block the α1 unit of Na,K-ATPase; cited from earlier work

## C[C@H]1O[C@@H](O[C@H]2[C@@H](O)C[C@H](O[C@H]3[C@@H](O)C[C@H](O[C@H]4CC[C@@]5(C)[C@H](CC[C@@H]6[C@@H]5CC[C@]5(C)[C@@H](C7=CC(=O)OC7)CC[C@]65O)C4)O[C@@H]3C)O[C@@H]2C)C[C@H](O)[C@@H]1O [digitoxin]
[1]
  route of elimination from the body: eliminated via the liver

## C[C@H]1O[C@@H](O[C@H]2[C@@H](O)C[C@H](O[C@H]3[C@@H](O)C[C@H](O[C@H]4CC[C@@]5(C)[C@H](CC[C@@H]6[C@@H]5C[C@@H](O)[C@]5(C)[C@@H](C7=CC(=O)OC7)CC[C@]65O)C4)O[C@@H]3C)O[C@@H]2C)C[C@H](O)[C@@H]1O [digoxin]
[2]
  serum level considered safe with no apparent side effects: < 1.0 ng/mL

## C[C@@H]1O[C@@H](O[C@H]2C[C@@H](O)[C@]3(CO)[C@H]4[C@H](O)C[C@]5(C)[C@@H](C6=CC(=O)OC6)CC[C@]5(O)[C@@H]4CC[C@]3(O)C2)[C@H](O)[C@H](O)[C@H]1O [ouabain]
[3]; 10 Hz DRG stimulation combined with ouabain 10 μg/mL (17.1 μM), OBF for C-fibers ~50 Hz without drug
  transmission block of C-fiber afferent by 10 Hz DRG stimulation: effectively blocks afferent transmission; also recorded: transmission block is achieved; also recorded: selectively block C-fiber afferents
[3]; 10 Hz DRG stimulation combined with ouabain 17.1 μM
  transmission block of Aδ-fiber afferent by 10 Hz DRG stimulation: unblocked; also recorded: unaffected
[3]; ouabain 10 μg/mL or 17.1 μM applied locally to the DRG in the middle compartment
  transmission block by DRG stimulation as measured by the time to resume transmission following terminating the DRG stimulation: significantly prolonged
[3]; ouabain applied to the DRG
  separation of optimal blocking frequency (OBF) between C-fibers and thinly myelinated Aδ-fibers: greater separation
[4]
  Kd: 32 to 170 µM
